The numbers were not newly measured in article PMC12125103 (Naunyn-Schmiedeberg's Archives of Pharmacology, 2024), which cites them from elsewhere.

Regarding etelcalcetide [Parsabiv], the “maximum single dose in healthy humans for safe tolerance” value is on record as 10 mg.
